Calls of active or inactive are those of the source. The rule behind the calls is not given here. Where a SMILES comes first, the peptide text is derived from it. Bridges are numbered along the chain shown (N, C = ends). [ ]: non-standard residue; d: D form. The star is where a group is joined. X1 = CC[C@H](C)CCCCC(=O)*; dDab = NCC[C@@H](N)C(=O)O; Dab = NCC[C@H](N)C(=O)O
How the values were obtained:
[1] = test system: Pseudomonas aeruginosa; test: Antibacterial activity against Pseudomonas aeruginosa ATCC 27853 incubated for 18 hrs in presence of 2.5% serum by broth microdilution method; type: functional, organism-based
[2] = test system: Pseudomonas aeruginosa; test: Induction of morphological changes in Pseudomonas aeruginosa ATCC 27853 assessed as membrane disruption at 2 times of MIC incubated for 30 to 120 mins by SEM analysis; type: functional, organism-based; details: time 30-120 min
[3] = test system: Pseudomonas aeruginosa; test: Bactericidal activity against Pseudomonas aeruginosa ATCC 27853 assessed as bacterial eradication at 1 times of MIC measured within 30 mins by time-kill kinetics assay; type: functional, organism-based
[4] = test system: Staphylococcus aureus; test: Antibacterial activity against methicillin-resistant Staphylococcus aureus ATCC 33591 infected in male Balb/c mouse model of full thickness skin wound assessed as reduction in bacterial load in skin at 1 mg/ml pre-infected with bacteria for 1 hrs followed by compound administration at 1,24,48 and 72 hrs post infection and measured 60 hrs post infection by agar plate method; type: functional, organism-based; details: time 59.0 hrs
[5] = test system: Pseudomonas aeruginosa; test: Antibiofilm activity in Pseudomonas aeruginosa ATCC 27853 assessed as inhibition of biofilm formation at 1/2 times of MIC incubated for 24 hrs by crystal violet staining based analysis; type: functional, organism-based
[6] = test system: Cell membrane; test: Disruption of membrane integrity in Pseudomonas aeruginosa ATCC 27853 at 2 times of MIC incubated for 30 to 120 mins by SEM analysis; type: subcellular; details: time 30-120 min
[7] = test system: Staphylococcus aureus; test: Bactericidal activity against Staphylococcus aureus ATCC 25923 assessed as bacterial killing at 1 to 4 times of MIC by time-kill kinetics assay; type: functional, organism-based; details: time <= 360.0 min
[8] = test system: Cell membrane; test: Induction of inner membrane permeabilization in Escherichia coli ML-35 ATCC 43837 assessed as increase in […] measured for 135 mins by ONPG based analysis; type: subcellular
[9] = test system: Cell membrane; test: Disruption of outer membrane integrity in Pseudomonas aeruginosa ATCC 27853 assessed as increase in fluorescence intensity at 1 times of MIC measured for 12 mins by NPN uptake assay; type: subcellular
[10] = test system: Staphylococcus aureus; test: Antibacterial activity against Staphylococcus aureus ATCC 25923 incubated for 18 hrs in presence of 2.5% serum by broth microdilution method; type: functional, organism-based
[11] = test system: Staphylococcus aureus; test: Antibacterial activity against Staphylococcus aureus ATCC 25923 incubated for 18 hrs in presence of 10% serum by broth microdilution method; type: functional, organism-based
[12] = test system: Staphylococcus aureus; test: Induction of morphological changes in Staphylococcus aureus ATCC 25923 assessed as content leakage at 2 times of MIC incubated for 30 to 120 mins by SEM analysis; type: functional, organism-based; details: time 30-120 min
[13] = test system: Klebsiella pneumoniae; test: Antibacterial activity against Klebsiella pneumoniae ATCC 700603 infected in male Balb/c mouse model of pneumonia assessed as decrease in bacterial load in lung at 5 mg/kg, ip administered at 4 and 12 hrs post-infected and measured after 24 hrs by agar plate method; type: functional, organism-based; details: time 20.0 hrs
[14] = test system: Staphylococcus aureus; test: Induction of morphological changes in Staphylococcus aureus ATCC 25923 assessed as blister formation at 2 times of MIC incubated for 30 to 120 mins by SEM analysis; type: functional, organism-based; details: time 30-120 min
[15] = test system: Pseudomonas aeruginosa; test: Bactericidal activity against Pseudomonas aeruginosa ATCC 27853 assessed as bacterial eradication at 4 times of MIC measured within 30 mins by time-kill kinetics assay; type: functional, organism-based
[16] = test system: Pseudomonas aeruginosa; test: Bactericidal activity against Pseudomonas aeruginosa ATCC 27853 assessed as bacterial eradication at 2 times of MIC measured within 30 mins by time-kill kinetics assay; type: functional, organism-based
[17] = test system: Klebsiella pneumoniae; test: Antibacterial activity against Klebsiella pneumoniae ATCC 700603 infected in male Balb/c mouse model of pneumonia assessed as decrease in decrease in IL-1beta level in lung at 5 mg/kg, ip administered at 4 and 12 hrs post-infected and measured after 24 hrs by ELISA; type: functional, organism-based; details: time 20.0 hrs
[18] = test system: Staphylococcus aureus; test: Induction of morphological changes in Staphylococcus aureus ATCC 25923 assessed as cellular fragmentation at 2 times of MIC incubated for 30 to 120 mins by SEM analysis; type: functional, organism-based; details: time 30-120 min
[19] = test system: Pseudomonas aeruginosa; test: Induction of morphological changes in Pseudomonas aeruginosa ATCC 27853 assessed as blister formation at 2 times of MIC incubated for 30 to 120 mins by SEM analysis; type: functional, organism-based; details: time 30-120 min
[20] = test system: Staphylococcus aureus; test: Induction of morphological changes in Staphylococcus aureus ATCC 25923 assessed as membrane disruption at 2 times of MIC incubated for 30 to 120 mins by SEM analysis; type: functional, organism-based; details: time 30-120 min
[21] = test system: Staphylococcus aureus; test: Bactericidal activity against Staphylococcus aureus ATCC 25923 assessed as bacterial killing measured upto 360 mins by time-kill kinetics assay; type: functional, organism-based
[22] = test system: Pseudomonas aeruginosa; test: Bactericidal activity against Pseudomonas aeruginosa ATCC 27853 assessed as bacterial killing at 1 to 4 times of MIC by time-kill kinetics assay; type: functional, organism-based; details: time <= 360.0 min
[23] = test system: Staphylococcus aureus; test: Antibacterial activity against Staphylococcus aureus ATCC 25923 incubated for 18 hrs in presence of 5% serum by broth microdilution method; type: functional, organism-based
[24] = test system: Pseudomonas aeruginosa; test: Bactericidal activity against Pseudomonas aeruginosa ATCC 27853 assessed as bacterial killing measured upto 360 mins by time-kill kinetics assay; type: functional, organism-based
[25] = test system: Staphylococcus aureus; test: Bactericidal activity against Staphylococcus aureus ATCC 25923 assessed as bacterial eradication at 1 times of MIC measured after 360 mins by time-kill kinetics assay; type: functional, organism-based
[26] = test system: DNA; test: Binding affinity to Staphylococcus aureus ATCC 25923 DNA at 1 to 8 times of MIC measured after 30 mins by agarose gel electrophoresis; type: nucleic-acid assay
[27] = test system: Pseudomonas aeruginosa; test: Antibacterial activity against Pseudomonas aeruginosa ATCC 27853 assessed as inhibition of bacterial growth compound pretreated with 32 microg/ml of LPS for 1 hrs followed by bacterial addition and measured after 18 hrs by absorbance based assay; type: functional, organism-based
[28] = test system: Klebsiella pneumoniae; test: Antibacterial activity against Klebsiella pneumoniae ATCC 700603 infected in male Balb/c mouse model of pneumonia assessed as decrease in decrease in TNF-alpha level in lung at 5 mg/kg, ip administered at 4 and 12 hrs post-infected and measured after 24 hrs by ELISA; type: functional, organism-based; details: time 20.0 hrs
[29] = test system: Pseudomonas aeruginosa; test: Induction of morphological changes in Pseudomonas aeruginosa ATCC 27853 assessed as cellular fragmentation at 2 times of MIC incubated for 30 to 120 mins by SEM analysis; type: functional, organism-based; details: time 30-120 min
[30] = test system: Staphylococcus aureus; test: Antibacterial activity against methicillin-resistant Staphylococcus aureus ATCC 33591 infected in male Balb/c mouse model of full thickness skin wound assessed as reduction in bacteria in skin wound at 1 mg/ml pre-infected with bacteria for 1 hrs followed by compound administration at 1,24,48 and 72 hrs post infection and measured after 10 days by photographic analysis; type: functional, organism-based; details: time 10.0 day
[31] = test system: Staphylococcus aureus; test: Bactericidal activity against Staphylococcus aureus ATCC 25923 assessed as bacterial eradication at 4 times of MIC measured after 120 mins by time-kill kinetics assay; type: functional, organism-based
[32] = test system: Staphylococcus aureus; test: Induction of morphological changes in Staphylococcus aureus ATCC 25923 assessed as cell adhesion at 2 times of MIC incubated for 30 to 120 mins by SEM analysis; type: functional, organism-based; details: time 30-120 min
[33] = test system: Cell membrane; test: Disruption of outer membrane integrity in Pseudomonas aeruginosa ATCC 27853 assessed as increase in fluorescence intensity at 4 times of MIC measured for 12 mins by NPN uptake assay; type: subcellular
[34] = test system: Cell membrane; test: Disruption of membrane integrity in Staphylococcus aureus ATCC 25923 at 2 times of MIC incubated for 30 to 120 mins by SEM analysis; type: subcellular; details: time 30-120 min
[35] = test system: Pseudomonas aeruginosa; test: Antibacterial activity against Pseudomonas aeruginosa ATCC 27853 incubated for 18 hrs in presence of 5% serum by broth microdilution method; type: functional, organism-based
[36] = test system: Klebsiella pneumoniae; test: Antibacterial activity against Klebsiella pneumoniae ATCC 700603 infected in male Balb/c mouse model of pneumonia assessed as decrease in decrease in IL-6 level in lung at 5 mg/kg, ip administered at 4 and 12 hrs post-infected and measured after 24 hrs by ELISA; type: functional, organism-based; details: time 20.0 hrs
[37] = test system: DNA; test: Binding affinity to Pseudomonas aeruginosa ATCC 27853 DNA at 1 to 8 times of MIC measured after 30 mins by agarose gel electrophoresis; type: nucleic-acid assay
[38] = test system: Cell membrane; test: Disruption of outer membrane integrity in Pseudomonas aeruginosa ATCC 27853 assessed as increase in fluorescence intensity at 2 times of MIC measured for 12 mins by NPN uptake assay; type: subcellular
[39] = test system: Pseudomonas aeruginosa; test: Induction of morphological changes in Pseudomonas aeruginosa ATCC 27853 assessed as content leakage at 2 times of MIC incubated for 30 to 120 mins by SEM analysis; type: functional, organism-based; details: time 30-120 min
[40] = test system: Staphylococcus aureus; test: Bactericidal activity against Staphylococcus aureus ATCC 25923 assessed as bacterial eradication at 2 times of MIC measured after 120 mins by time-kill kinetics assay; type: functional, organism-based
[41] = test system: Pseudomonas aeruginosa; test: Induction of morphological changes in Pseudomonas aeruginosa ATCC 27853 assessed as cell adhesion at 2 times of MIC incubated for 30 to 120 mins by SEM analysis; type: functional, organism-based; details: time 30-120 min
[42] = test system: Pseudomonas aeruginosa; test: Antibacterial activity against Pseudomonas aeruginosa ATCC 27853 incubated for 18 hrs in presence of 10% serum by broth microdilution method; type: functional, organism-based

For CC(C)CCCCC(=O)N[C@@H](CCN)C(=O)N[C@H](C(=O)N[C@@H](CCN)C(=O)N[C@H]1CCNC(=O)[C@H]([C@@H](C)O)NC(=O)[C@H](CCN)NC(=O)[C@H](CCN)NC(=O)[C@H](CC(C)C)NC(=O)[C@@H](Cc2ccccc2)NC(=O)[C@@H](CCN)NC1=O)[C@@H](C)O.CC[C@H](C)CCCCC(=O)N[C@@H](CCN)C(=O)N[C@H](C(=O)N[C@@H](CCN)C(=O)N[C@H]1CCNC(=O)[C@H]([C@@H](C)O)NC(=O)[C@H](CCN)NC(=O)[C@H](CCN)NC(=O)[C@H](CC(C)C)NC(=O)[C@@H](Cc2ccccc2)NC(=O)[C@@H](CCN)NC1=O)[C@@H](C)O (X1-[Dab]T[Dab][Dab][dDab][dF]L[Dab][Dab]T; lactam 4-C), which Activity [1] is on record?
The Activity was “Active”.

What about the Activity [2] of the same compound?
Its Activity is “Active”.

And the Activity [3]?
Its Activity is “Active”.

What about the Activity [4] of the same compound?
Its Activity is “Active”.

What about the Activity [5] of the same compound?
The Activity was “inactive”.

And the Activity [6]?
The Activity was “Active; Pronounced Detrimental Effect Observed”.

What about the Activity [7] of the same compound?
The Activity was “Time-dependent-effect”.

What about the Activity [8] of the same compound?
The Activity was “Active; Lower Concentration Of Compound Is Sufficient To Disrupt Inner Membrane”.

What about the Activity [9] of the same compound?
The Activity was “Active”.

What about the Activity [10] of the same compound?
The Activity was “Active”.

And the Activity [11]?
Its Activity is “Active”.

And the Activity [12]?
The Activity was “Active”.

And the Activity [13]?
The Activity was “Active”.

What about the Activity [14] of the same compound?
Its Activity is “Active”.

And the Activity [15]?
Its Activity is “Active”.

And the Activity [16]?
Its Activity is “Active”.

And the Activity [17]?
The Activity was “Active”.

And the Activity [18]?
Its Activity is “Active”.

And the Activity [19]?
The Activity was “Active”.

What about the Activity [20] of the same compound?
The Activity was “Active”.

What about the Activity [21] of the same compound?
The Activity was “Dose-dependent-effect”.

What about the Activity [22] of the same compound?
Its Activity is “Time-dependent-effect”.

And the Activity [23]?
The Activity was “Active”.

What about the Activity [24] of the same compound?
Its Activity is “Dose-dependent-effect”.

What about the Activity [25] of the same compound?
Its Activity is “Active”.

What about the Activity [26] of the same compound?
Its Activity is “Not active; Weak Binding Affinity Observed”.

What about the Activity [27] of the same compound?
Its Activity is “Not active; Compound Binds To Lps To Exert Its Activity”.

What about the Activity [28] of the same compound?
Its Activity is “Active”.

What about the Activity [29] of the same compound?
The Activity was “Active”.

And the Activity [30]?
Its Activity is “Active; Obvious Facilitation Of Wound Healing Not Observed”.

What about the Activity [31] of the same compound?
Its Activity is “Active”.

What about the Activity [32] of the same compound?
The Activity was “Active”.

What about the Activity [33] of the same compound?
The Activity was “Active; Maximum Permeability Effects Observed”.

And the Activity [34]?
The Activity was “Active”.

And the Activity [35]?
The Activity was “Active”.

And the Activity [36]?
Its Activity is “inactive”.

And the Activity [37]?
The Activity was “Not active; Weak Binding Affinity Observed”.

And the Activity [38]?
The Activity was “Active”.

What about the Activity [39] of the same compound?
Its Activity is “Active”.

And the Activity [40]?
The Activity was “Active”.

What about the Activity [41] of the same compound?
Its Activity is “Active”.

And the Activity [42]?
Its Activity is “Active”.
